From ChEMBL document CHEMBL1157257, “Bioactive ent-clerodane diterpenoids from the aerial parts of Baccharis gaudichaudiana” (2006)
Calls of active or inactive are those of the source. The calls are words filed in the database; no cut-off is given here.

Legend:
PC-12 [1] = test: Enhancement of 2 ng/mL NGF-induced neurite outgrowth in rat PC12D cells at 100 umol after 48 hrs by phase-contrast microscopy relative to 50 ng/mL NGF alone; type: functional
PC-12 [2] = test: Effect on neurite outgrowth from rat PC12D cells at 10 to 100 umol after 48 hrs by phase-contrast microscopy; type: functional, cell-based
PC-12 [3] = test: Enhancement of NGF-induced neurite outgrowth in rat PC12D cells at 10 to 100 umol after 48 hrs by phase-contrast microscopy; type: functional, cell-based

SMILES	Activity (PC-12 [1]) [%]	Activity (PC-12 [2])	Activity (PC-12 [3])
CO[C@@H]1C[C@H](CC[C@@]2(C)[C@H](C)CC[C@@]3(C)C(C(=O)O)=CCC[C@H]23)CO1	53	inactive	
CO[C@H]1C[C@H](CC[C@@]2(C)[C@H](C)CC[C@@]3(C)C(C(=O)O)=CCC[C@H]23)CO1	49	inactive	
COC(=O)CC(CO)CC[C@@]1(C)[C@H](C)C(=O)C[C@@]23COC(=O)C2=CCC[C@@H]31 (stereo not given in full)			inactive
